Holding throughout (assay): relative viability (nuclei count vs DMSO), 5 days (fraction); higher = more cells survive
Compound in the assay “Metformin + AZD7762”: CN(C)C(=N)NC(=N)N [Metformin] + NC(=O)Nc1cc(-c2cccc(F)c2)sc1C(=O)N[C@H]1CCCNC1 [AZD7762] (partner 0.2 µM)
Summed up:
(§1)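 Five library-drug doses in √10 steps were combined with a fixed anchor-drug dose, or a single drug was given alone, by pin tool to lung cancer cell lines in 1536-well plates the day after seeding. Nuclei were stained and counted after 5 days. Relative viability is the nuclei count in treated wells over that in vehicle wells, taken as the median of duplicate plates.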

Compound in the assay “Apatinib + Alpelisib”: N#CC1(c2ccc(NC(=O)c3cccnc3NCc3ccncc3)cc2)CCCC1 [Apatinib] + Cc1nc(NC(=O)N2CCC[C@H]2C(N)=O)sc1-c1ccnc(C(C)(C)C(F)(F)F)c1 [Alpelisib] (partner 2 µM)
Summed up:
as §1

Compound in the assay “Metformin + OSI-027”: CN(C)C(=N)NC(=N)N [Metformin] + COc1cccc2cc(-c3nc([C@H]4CC[C@H](C(=O)O)CC4)n4ncnc(N)c34)[nH]c12 [OSI-027] (partner 0.5 µM)
Summed up:
as §1

Compound in the assay “Metformin + Tozasertib”: CN(C)C(=N)NC(=N)N [Metformin] + Cc1cc(Nc2cc(N3CCN(C)CC3)nc(Sc3ccc(NC(=O)C4CC4)cc3)n2)n[nH]1 [Tozasertib] (partner 0.1 µM)
Summed up: as §1

For LXF-289, the relative viability was determined as 1.05 with Metformin + AZD7762 (first compound 10 µM); 1.02 in the assay with Metformin + AZD7762 (first compound 31.62 µM); 1.01 in the assay with Metformin + AZD7762 (first compound 100 µM); 1.05 with Metformin + AZD7762 (first compound 316.23 µM); 1.07 with Metformin + AZD7762 (first compound 1000 µM); 1.13 with Apatinib + Alpelisib (first compound 0.08 µM). Moreover, the relative viability in the assay with Apatinib + Alpelisib (first compound 0.253 µM) turned out to be 1.06; with Apatinib + Alpelisib (first compound 0.8 µM), 1.03; with Apatinib + Alpelisib (first compound 2.53 µM), 0.998; with Apatinib + Alpelisib (first compound 8 µM), 0.964; in the assay with Metformin + OSI-027 (first compound 10 µM), 0.764; in the assay with Metformin + OSI-027 (first compound 31.62 µM) it was 0.737. In addition, the relative viability was 0.738 in the assay with Metformin + OSI-027 (first compound 100 µM); 0.721 with Metformin + OSI-027 (first compound 316.23 µM); 0.735 in the assay with Metformin + OSI-027 (first compound 1000 µM); 0.191 with Metformin + Tozasertib (first compound 10 µM); 0.179 with Metformin + Tozasertib (first compound 31.62 µM); 0.206 in the assay with Metformin + Tozasertib (first compound 100 µM). In addition, the relative viability with Metformin + Tozasertib (first compound 316.23 µM) stood at 0.174; in the assay with Metformin + Tozasertib (first compound 1000 µM), 0.19.
On to EPLC-272H, for which the relative viability stood at 0.23 with Metformin + AZD7762 (first compound 10 µM); 0.351 in the assay with Metformin + AZD7762 (first compound 31.62 µM); 0.345 with Metformin + AZD7762 (first compound 100 µM); 0.334 in the assay with Metformin + AZD7762 (first compound 316.23 µM); 0.259 with Metformin + AZD7762 (first compound 1000 µM); 1.04 with Apatinib + Alpelisib (first compound 0.08 µM). Besides, the relative viability with Apatinib + Alpelisib (first compound 0.253 µM) stood at 0.904; with Apatinib + Alpelisib (first compound 0.8 µM) it was 0.841; with Apatinib + Alpelisib (first compound 2.53 µM) it was 0.971; with Apatinib + Alpelisib (first compound 8 µM) it was 0.903; with Metformin + OSI-027 (first compound 10 µM), 0.294; with Metformin + OSI-027 (first compound 31.62 µM), 0.269. In addition, the relative viability stood at 0.262 with Metformin + OSI-027 (first compound 100 µM); 0.293 in the assay with Metformin + OSI-027 (first compound 316.23 µM); 0.335 with Metformin + OSI-027 (first compound 1000 µM); 0.292 with Metformin + Tozasertib (first compound 10 µM); 0.212 in the assay with Metformin + Tozasertib (first compound 31.62 µM); 0.288 in the assay with Metformin + Tozasertib (first compound 100 µM). For the same cell line, the relative viability in the assay with Metformin + Tozasertib (first compound 316.23 µM) turned out to be 0.192; in the assay with Metformin + Tozasertib (first compound 1000 µM), 0.238.
Consider NCI-H2087, for which the relative viability with Metformin + AZD7762 (first compound 10 µM) is 1.3; in the assay with Metformin + AZD7762 (first compound 31.62 µM), 1.21; in the assay with Metformin + AZD7762 (first compound 100 µM), 1.12; with Metformin + AZD7762 (first compound 316.23 µM), 1.11; with Metformin + AZD7762 (first compound 1000 µM), 1.39; in the assay with Apatinib + Alpelisib (first compound 0.08 µM) it was 1.19. The relative viability in the assay with Apatinib + Alpelisib (first compound 0.253 µM) amounted to 1.07; with Apatinib + Alpelisib (first compound 0.8 µM), 1.03; with Apatinib + Alpelisib (first compound 2.53 µM) it was 0.904; with Apatinib + Alpelisib (first compound 8 µM), 0.666; with Metformin + OSI-027 (first compound 31.62 µM), 0.753; in the assay with Metformin + OSI-027 (first compound 100 µM) it was 0.73. The relative viability in the assay with Metformin + OSI-027 (first compound 316.23 µM) is 0.536; with Metformin + OSI-027 (first compound 1000 µM) it was 0.482; with Metformin + Tozasertib (first compound 31.62 µM), 0.281; with Metformin + Tozasertib (first compound 100 µM), 0.246; with Metformin + Tozasertib (first compound 316.23 µM), 0.253; with Metformin + Tozasertib (first compound 1000 µM) it was 0.245.
Regarding NCI-H647, the relative viability with Metformin + AZD7762 (first compound 10 µM) was found to be 0.414; in the assay with Metformin + AZD7762 (first compound 31.62 µM) it was 0.467; in the assay with Metformin + AZD7762 (first compound 100 µM) it was 0.495; in the assay with Metformin + AZD7762 (first compound 316.23 µM) it was 0.418; with Metformin + AZD7762 (first compound 1000 µM) it was 0.513; in the assay with Apatinib + Alpelisib (first compound 0.08 µM), 1.39. Moreover, the relative viability with Apatinib + Alpelisib (first compound 0.253 µM) is 1.21; in the assay with Apatinib + Alpelisib (first compound 0.8 µM), 1.1; with Apatinib + Alpelisib (first compound 2.53 µM), 0.799; with Apatinib + Alpelisib (first compound 8 µM), 0.706; with Metformin + OSI-027 (first compound 10 µM), 0.721; with Metformin + OSI-027 (first compound 31.62 µM), 0.853. For the same cell line, the relative viability with Metformin + OSI-027 (first compound 100 µM) is 0.538; with Metformin + OSI-027 (first compound 316.23 µM) it was 0.485; with Metformin + OSI-027 (first compound 1000 µM), 0.924; in the assay with Metformin + Tozasertib (first compound 10 µM), 0.244; with Metformin + Tozasertib (first compound 31.62 µM), 0.293; with Metformin + Tozasertib (first compound 100 µM), 0.349. Moreover, the relative viability with Metformin + Tozasertib (first compound 316.23 µM) is 0.456; with Metformin + Tozasertib (first compound 1000 µM), 0.307.
With NCI-H1793, the relative viability amounted to 0.535 in the assay with Metformin + AZD7762 (first compound 10 µM); 0.47 in the assay with Metformin + AZD7762 (first compound 31.62 µM); 0.784 in the assay with Metformin + AZD7762 (first compound 100 µM); 0.396 in the assay with Metformin + AZD7762 (first compound 316.23 µM); 0.505 in the assay with Metformin + AZD7762 (first compound 1000 µM); 0.576 in the assay with Apatinib + Alpelisib (first compound 0.08 µM). In addition, the relative viability was 0.727 with Apatinib + Alpelisib (first compound 0.253 µM); 0.471 in the assay with Apatinib + Alpelisib (first compound 0.8 µM); 0.481 with Apatinib + Alpelisib (first compound 2.53 µM); 0.593 with Apatinib + Alpelisib (first compound 8 µM); 0.395 with Metformin + OSI-027 (first compound 10 µM); 0.315 with Metformin + OSI-027 (first compound 100 µM). Besides, the relative viability in the assay with Metformin + OSI-027 (first compound 316.23 µM) was 0.238; with Metformin + OSI-027 (first compound 1000 µM), 0.253; in the assay with Metformin + Tozasertib (first compound 10 µM), 0.459; in the assay with Metformin + Tozasertib (first compound 100 µM), 0.5; with Metformin + Tozasertib (first compound 316.23 µM) it was 0.469; in the assay with Metformin + Tozasertib (first compound 1000 µM), 0.588.

Source of the values: the supplement of paper PMC10307832.
